In PubChem BioAssay (NCI):
Where “and” joins values, the source holds several entries; their conditions need not be identical. Identical values can stand only once.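 Values below derive from 48-hour exposures of cells grown in 96-well plates, with endpoints linearly interpolated between the two concentrations bracketing the appropriate inhibition level. GI50 marks 50% less growth. At the TGI there is no net growth.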

Tests used:
Test in all cases: inhibition of tumour cell growth, NCI panel, 48 h
[1] = tested on: SR leukemia
[2] = tested on: IGROV1 ovarian
[3] = tested on: DU-145 prostate
[4] = tested on: MALME-3M melanoma
[5] = tested on: OVCAR-3 ovarian
[6] = tested on: A549 NSCLC
[7] = tested on: HCT-116 colon
[8] = tested on: HS 578T breast

COc1cc(/C=C/C(=O)/C=C/c2ccc(-n3ccnc3C)cc2)ccc1O
GI50 [1]: 2.55 µM
TGI [1]: > 100 µM
GI50 [2]: 2.04 µM
TGI [2]: 5.12 µM
GI50 [3]: 2.82 µM
TGI [3]: 7.55 µM
GI50 [4]: 4.63 µM
TGI [4]: 30.5 µM
GI50 [5]: 2.85 µM
TGI [5]: 8.41 µM
GI50 [6]: 3.22 µM
TGI [6]: > 100 µM

Nc1nc([Se])c2ncn(C3OC(CO)C(O)C3O)c2n1 (centres undefined)
GI50 [1]: 2.88 µM
TGI [1]: > 100 µM
GI50 [2]: 25.9 µM
TGI [2]: > 100 µM
GI50 [3]: 3.31 µM
TGI [3]: > 100 µM
GI50 [7]: 4 µM
TGI [7]: > 100 µM
GI50 [4]: > 100 µM
TGI [4]: > 100 µM
GI50 [5]: 17.4 µM
TGI [5]: 68.8 µM
GI50 [8]: 4.71 µM
TGI [8]: > 100 µM
GI50 [6]: 25.1 µM
TGI [6]: > 100 µM

CCOCCCn1c2c(c3c(O)cccc31)C(=O)c1ccccc1-2
GI50 [1]: 10.6 µM
TGI [1]: 27.7 µM
GI50 [2]: 17.1 µM
TGI [2]: 48.7 µM
GI50 [3]: 33.3 µM
TGI [3]: > 100 µM
GI50 [7]: 16.6 µM
TGI [7]: 33.5 µM
GI50 [4]: 14.7 µM
TGI [4]: 37.1 µM
GI50 [5]: 21.9 µM
TGI [5]: 55.3 µM
GI50 [8]: 32.8 µM
TGI [8]: 82.3 µM
GI50 [6]: 29.2 µM
TGI [6]: > 100 µM

CCC(C)Nc1ccc(N)cc1 (centres undefined)
GI50 [1]: 2.1 µM
TGI [1]: 5.4 µM
GI50 [2]: 4.79 µM
TGI [2]: 20.5 µM
GI50 [3]: 5.75 µM
TGI [3]: 19.7 µM
GI50 [7]: 2.73 µM
TGI [7]: 8.73 µM
GI50 [4]: 2.65 µM
TGI [4]: 8.08 µM
GI50 [5]: 2.28 µM
TGI [5]: 5.54 µM
GI50 [8]: 4.35 µM
TGI [8]: 24.4 µM
GI50 [6]: 4.7 µM
TGI [6]: 48.5 µM

COc1ccc2c(c1)c(-c1nc(-c3c[nH]c4ccncc34)cs1)cn2C
GI50 [2]: 1.91 µM
TGI [2]: 3.54 µM
GI50 [3]: 1.75 µM
TGI [3]: 3.25 µM
GI50 [7]: 1.69 µM
TGI [7]: 3.22 µM
GI50 [4]: 1.74 µM
TGI [4]: 3.28 µM
GI50 [5]: 1.88 µM
TGI [5]: 3.34 µM
GI50 [8]: 2.03 µM
TGI [8]: 4.02 µM
GI50 [6]: 1.87 µM
TGI [6]: 3.46 µM

COc1ccc2c(c1)[nH]c(=O)c1c3cccc(F)c3cn21
GI50 [1]: 0.0247 µM
TGI [1]: 0.594 µM
GI50 [2]: 0.0397 µM
GI50 [3]: 0.0696 µM
TGI [3]: > 100 µM
GI50 [7]: 0.0458 µM
TGI [7]: 13.9 µM
GI50 [5]: 0.0295 µM
TGI [5]: 0.0774 µM
GI50 [8]: 0.0299 µM
TGI [8]: 0.0904 µM
GI50 [6]: 0.0667 µM
TGI [6]: > 100 µM

COc1ccc(/C(COc2ccc3oc(-c4ccccc4)cc(=O)c3c2)=N\O)cc1
TGI [1]: > 50 µM
GI50 [2]: < 0.005 µM
TGI [2]: > 50 µM
GI50 [3]: 2.27 µM
TGI [3]: 13.4 µM
GI50 [7]: < 0.005 µM
TGI [7]: 9.36 µM
GI50 [5]: < 0.005 µM
TGI [5]: 0.0538 µM
GI50 [6]: 0.133 µM
TGI [6]: > 50 µM

CC1CC[P+](c2ccccc2)(c2ccccc2)c2c1ccc1ccccc21 (centres undefined)
GI50 [1]: 9.65 µM
TGI [1]: > 100 µM
GI50 [2]: 4.42 µM
TGI [2]: 21.2 µM
GI50 [3]: 13.3 µM
TGI [3]: > 100 µM
TGI [7]: > 39.5 µM
GI50 [5]: 3.09 µM
TGI [5]: > 58.8 µM
TGI [8]: 7.66 µM
TGI [6]: > 100 µM

COC(=O)c1ccc(CN2C(=O)C(Cl)=C(Nc3cccc(Cl)c3C)C2=O)cc1
GI50 [2]: 2.76 µM
TGI [2]: 18.5 µM
GI50 [3]: 29.1 µM
TGI [3]: > 100 µM
GI50 [7]: 4.44 µM
TGI [7]: > 100 µM
GI50 [4]: 2.03 µM
TGI [4]: 9.82 µM
GI50 [5]: 20.2 µM
TGI [5]: 70.3 µM
GI50 [8]: 21 µM
TGI [8]: 95.5 µM
GI50 [6]: 37.2 µM
TGI [6]: > 100 µM

CCCCCCCCCCCCCCCCCCn1cc[n+](C)c1
GI50 [1]: 1.24 µM
TGI [1]: > 100 µM
GI50 [2]: 0.253 µM and 0.516 µM
GI50 [3]: 0.801 µM and 0.87 µM
TGI [3]: 2.06 µM and 2.1 µM
GI50 [5]: 0.366 µM
TGI [5]: 1.27 µM
GI50 [8]: 0.335 µM
TGI [8]: 1.8 µM

COc1ccc2c(c1OC)CO[C@@H]2[C@H]1c2c(cc3c(c2OC)OCO3)CCN1S(=O)(=O)c1cn(C)cn1
GI50 [1]: 0.902 µM
TGI [1]: > 100 µM
GI50 [2]: 1.45 µM
TGI [2]: > 100 µM
GI50 [3]: 2.77 µM
TGI [3]: 12 µM
GI50 [7]: 0.494 µM
TGI [7]: > 100 µM
GI50 [4]: 0.77 µM
TGI [4]: > 100 µM
GI50 [5]: 1.59 µM
TGI [5]: 4.83 µM
GI50 [6]: 1.99 µM
TGI [6]: > 100 µM

C=C/C=C/[C@@H](O)CC(=C)C[C@H]1OC2[C@H](C)[C@@H](OC(=O)C[C@H]3C[C@H](OC(C)=O)C[C@@]4(C[C@@](C)(O)C[C@H](CC(=C)[C@@H](C)[C@H](OC(C)=O)[C@H](C)C(=O)C[C@@H]5C[C@H](OC)CC6(C[C@@H](O)C[C@H](/C=C\CCC[C@H]7O[C@](O)(C=C[C@H]7C)[C@H]2O)O6)O5)O4)O3)[C@@H]1O
GI50 [1]: 0.0025 µM
TGI [1]: > 25 µM
GI50 [2]: 0.00158 µM and < 0.0025 µM
TGI [2]: < 0.0025 µM
GI50 [3]: 0.0012 µM and 0.0025 µM
TGI [7]: 0.0112 µM
GI50 [4]: 0.0025 µM
GI50 [5]: < 0.0025 µM
TGI [5]: < 0.0025 µM
GI50 [8]: 0.00177 µM
TGI [8]: 0.0082 µM

COc1ccc(-c2nc(-c3ccc(C)cc3)cn3ccnc23)cc1
GI50 [1]: 0.3 µM
TGI [1]: > 50 µM
GI50 [2]: 2.43 µM
TGI [2]: > 50 µM
GI50 [3]: 6.11 µM
TGI [3]: > 50 µM
GI50 [7]: 2.61 µM
TGI [7]: > 50 µM
GI50 [5]: 4.46 µM
TGI [5]: > 50 µM
GI50 [8]: 20.4 µM
TGI [8]: > 50 µM
GI50 [6]: 3.97 µM
TGI [6]: > 50 µM

COc1ccc(C/C(=C(\C)c2ccc(OCCN3CCCC3)cc2)c2ccc(OCCN3CCCC3)cc2)cc1
GI50 [1]: 0.565 µM
TGI [1]: 3.47 µM
GI50 [2]: 1.87 µM
TGI [2]: 3.97 µM
GI50 [3]: 1.86 µM
TGI [3]: 3.75 µM
GI50 [4]: 1.67 µM
TGI [4]: 3.26 µM
GI50 [5]: 2 µM
TGI [5]: 3.87 µM
GI50 [8]: 2.17 µM
TGI [8]: 4.83 µM
GI50 [6]: 1.82 µM
TGI [6]: 3.84 µM

O=S(=O)(NNc1ccccc1)c1ccccc1
TGI [1]: 53.1 µM
TGI [2]: 32.7 µM
TGI [3]: 34.3 µM
TGI [7]: 29.4 µM
TGI [5]: 58.7 µM
TGI [8]: > 100 µM
TGI [6]: 23.5 µM

CC1=C(SCCC(=O)OC(C[Se]C2=C(C)C(=O)c3ccccc3C2=O)C(=O)NCCCCCC(=O)OCc2ccccc2)C(=O)c2ccccc2C1=O (centres undefined)
GI50 [2]: 2.13 µM
TGI [2]: 14.5 µM
GI50 [7]: 1.99 µM
TGI [7]: 4.6 µM
GI50 [4]: 2.07 µM
TGI [4]: 6.96 µM
GI50 [5]: 5.01 µM
TGI [5]: 18.2 µM
GI50 [8]: 7.6 µM
TGI [8]: > 100 µM
GI50 [6]: 3.95 µM
TGI [6]: 11.4 µM
